PubChem BioAssay AID1963825 (Molecular Pharmacology Branch, DTP, NCI, 2024)

Experiment: Anticancer human tumor 997537-175-T-J1-PDC patient-derived colon adenocarcinoma cell line growth inhibition [POLQ]
Details: 997537-175-T-J1-PDC complex spheroid viability, combination with POLQ inhibitors; for IC50: curve of first compound; for viability, T/C: stronger effect = lower value
Procedure: Multicellular complex tumor spheroid response to Polymerase (POL) inhibitors (novobiocin, ART-558, RP6685) in combination with a variety of drugs and investigational agents in selected tumor cell lines
The POL inhibitors (novobiocin, ART-558, and RP6685) were evaluated both individually and in combination with standard of care and investigational anticancer small molecules within a complex spheroid model of solid tumors. . Complex spheroids include a stromal component modeled by human endothelial cells (HUVEC) and fibroblasts modeled by human mesenchymal stem cells (MSCs). The concentration ranges selected for each drug and investigational agent were based upon clinically achievable concentrations if the clinical Cmax of the agent was known.
Compounds. The drugs and investigational agents: novobiocin (NSC847541), ART-558 (NSC835418), RP-6685 (NSC848927), peposertib (NSC802822), ceralasertib (NSC780249), elimusertib (NSC800525), camonsertib (NSC841442), AZD-1390 (NSC803789), olaparib (NSC753686), talazoparib (NSC767125), rucaparib (NSC756644), sotorasib (NSC818433), MRTX-1133 (NSC836407), SN-38 (NSC673596), topotecan (NSC609699), epotoside (NSC141540), doxorubicin (NSC123127), gemcitabine (NSC613327), 5-fluorouracil (NSC19893), paclitaxel (NSC125973), vemurafenib (NSC761431), MSA-2 (NSC828583), SN-011 (NSC837082), adavosertib (NSC754352), prexasertib (NSC758257), carboplatin (NSC241240) and oxaliplatin (NSC266046), were obtained from the National Cancer Institute (NCI) Developmental Therapeutics Program Chemical Repository (21). The FDA-approved anticancer drug set is available from the Developmental Therapeutics Program at https://dtp.cancer.gov/organization/dscb/obtaining/. […] The stock solutions were prepared in dimethyl sulfoxide (DMSO, Sigma-Aldrich, St. Louis, MO, cat. D2650), except for the platinum compounds which were prepared in saline (Quality Biological, Gaithersburg, MD, cat. 114-055-101), at 800-fold the tested concentration and stored at -70 degrees C prior to their use. All drugs and investigational agents were tested over a range starting from a high concentration at or near the clinical Cmax and decreasing in half-log increments. If the clinical Cmax for an agent had not been determined, the highest concentration tested was 10 microM, except for SN-38, which was tested at a high concentration of 1 microM.
Cell Culture. All cells were maintained in an incubator at 37 degrees C and 5% CO2 with 95% humidity. The PDC lines were cultured according to standard operating procedures established by the NCI PDMR (https://pdmr.cancer.gov). Table 3 of the manuscript, lists the cell lines along with the number of the three cell types plated to form the mct-spheroids and media for tumor cell growth. After thawing, all PDC lines, except 997537-175-T-J1-PDC and 415267-285-R-J2-PDC, were cultured in Matrigel-coated flasks prepared with a working solution of 1X Ham's F-12 nutrient mix, without supplementation (Thermo Fisher Scientific, cat. 11765054), 100 U/mL penicillin-streptomycin (Thermo Fisher Scientific, cat. 15140122), and 2.5% Matrigel (Corning Inc., Corning, NY, cat. 354248) for the first three passages. The two PDC lines 997537-175-T-J1-PDC and 415267-285-R-J2-PDC were cultured on uncoated flasks. The 857933-349-R-J2-PDC line was cultured in 6C/Colon 1B media containing advanced DMEM/F-12 (Thermo Fisher Scientific, cat. 12634028), 10 mM HEPES (Thermo Fisher Scientific, cat. 15630080), 1X GlutaMAX supplement (Thermo Fisher Scientific, cat. 35050061), 0.1 mg/mL primocin (InvivoGen, San Diego, CA, cat. ant-pm-2), 10% defined fetal bovine serum, heat inactivated (HyClone Laboratories Inc., Logan, UT, cat. SH30070.03HI), 50% L-WRN conditioned media (ATCC, cat. CRL-3276), 1.25 mM N-Acetyl-L-cysteine (Sigma-Aldrich, cat. A9165), 10 mM nicotinamide (Sigma-Aldrich, cat. N0636), 1X B-27 supplement (Thermo Fisher Scientific, cat. 17504044), 1X N-2 supplement (Thermo Fisher Scientific, cat. […]
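Also: luminescence signal used as a surrogate for viable cells; spheroids exposed to drugs for seven days before readout.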

CCc1cc2c(N3CCc4c(cc(Cn5ccnc5)cc4-c4cn(C)nc4C(F)(F)F)C3=O)cc(C)nc2c(OC)n1 + Cc1cccc(N(C)C(=O)C2C(O)CCN2c2nc(C)cc(C(F)(F)F)c2C#N)c1
IC50 (second compound 0.0316 µM): > 10 µM
IC50 (second compound 0.1 µM): > 10 µM
IC50 (second compound 0.316 µM): > 10 µM
IC50 (second compound 1 µM): > 10 µM
IC50 (second compound 3.16 µM): > 10 µM
IC50 (second compound 10 µM): > 10 µM
viability, T/C (second compound 0.0316 µM, first compound 0.0316 µM): 109%
viability, T/C (second compound 0.0316 µM, first compound 0.1 µM): 113%
viability, T/C (second compound 0.0316 µM, first compound 0.316 µM): 97%
viability, T/C (second compound 0.0316 µM, first compound 1 µM): 82.8%
viability, T/C (second compound 0.0316 µM, first compound 3.16 µM): 87.1%
viability, T/C (second compound 0.0316 µM, first compound 10 µM): 52.4%
viability, T/C (second compound 0.1 µM, first compound 0.0316 µM): 108%
viability, T/C (second compound 0.1 µM, first compound 0.1 µM): 105%
viability, T/C (second compound 0.1 µM, first compound 0.316 µM): 84.1%
viability, T/C (second compound 0.1 µM, first compound 1 µM): 90.6%
viability, T/C (second compound 0.1 µM, first compound 3.16 µM): 75.2%
viability, T/C (second compound 0.1 µM, first compound 10 µM): 74.6%
viability, T/C (second compound 0.316 µM, first compound 0.0316 µM): 83.5%
viability, T/C (second compound 0.316 µM, first compound 0.1 µM): 103%
viability, T/C (second compound 0.316 µM, first compound 0.316 µM): 82.6%
viability, T/C (second compound 0.316 µM, first compound 1 µM): 84.1%
viability, T/C (second compound 0.316 µM, first compound 3.16 µM): 82.9%
viability, T/C (second compound 0.316 µM, first compound 10 µM): 60.9%
viability, T/C (second compound 1 µM, first compound 0.0316 µM): 91.2%
viability, T/C (second compound 1 µM, first compound 0.1 µM): 91.7%
viability, T/C (second compound 1 µM, first compound 0.316 µM): 85.9%
viability, T/C (second compound 1 µM, first compound 1 µM): 86.9%
viability, T/C (second compound 1 µM, first compound 3.16 µM): 111%
viability, T/C (second compound 1 µM, first compound 10 µM): 63.3%
viability, T/C (second compound 3.16 µM, first compound 0.0316 µM): 97.1%
viability, T/C (second compound 3.16 µM, first compound 0.1 µM): 115%
viability, T/C (second compound 3.16 µM, first compound 0.316 µM): 92.2%
viability, T/C (second compound 3.16 µM, first compound 1 µM): 82.7%
viability, T/C (second compound 3.16 µM, first compound 3.16 µM): 61.6%
viability, T/C (second compound 3.16 µM, first compound 10 µM): 59.5%
viability, T/C (second compound 10 µM, first compound 0.0316 µM): 102%
viability, T/C (second compound 10 µM, first compound 0.1 µM): 91.8%
viability, T/C (second compound 10 µM, first compound 0.316 µM): 105%
viability, T/C (second compound 10 µM, first compound 1 µM): 77.2%
viability, T/C (second compound 10 µM, first compound 3.16 µM): 74%
viability, T/C (second compound 10 µM, first compound 10 µM): 53.6%
